Results published in PubChem BioAssay (NCI).
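A five-concentration, 48-hour dose response in 96-well plates underlies each endpoint, interpolated linearly between surrounding concentrations. The concentration for full growth arrest is given as TGI.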

Tests used:
Assay in all cases: NCI-60 cell line screen, 48 h
[1] = tested on: SK-OV-3 ovarian
[2] = tested on: MALME-3M melanoma
[3] = tested on: MOLT-4 leukemia
[4] = tested on: XF 498 CNS
[5] = tested on: HL-60(TB) leukemia
[6] = tested on: HOP-92 NSCLC
[7] = tested on: RXF 393 renal
[8] = tested on: SNB-19 CNS
[9] = tested on: LXFL 529 NSCLC
[10] = tested on: CAKI-1 renal
[11] = tested on: HT29 colon
[12] = tested on: KM12 colon
[13] = tested on: TK-10 renal
[14] = tested on: A498 renal
[15] = tested on: DMS 273 small cell lung
[16] = tested on: 786-0 renal
[17] = tested on: OVCAR-5 ovarian
[18] = tested on: HOP-62 NSCLC
[19] = tested on: SF-268 CNS
[20] = tested on: IGROV1 ovarian
[21] = tested on: K-562 leukemia
[22] = tested on: SF-295 CNS
[23] = tested on: NCI-H226 lung
[24] = tested on: SNB-78 CNS
[25] = tested on: SN12C renal
[26] = tested on: UACC-62 melanoma
[27] = tested on: UO-31 renal
[28] = tested on: CCRF-CEM leukemia
[29] = tested on: RXF-631 renal
[30] = tested on: SF-539 CNS
[31] = tested on: OVCAR-4 ovarian
[32] = tested on: OVCAR-8 ovarian
[33] = tested on: ACHN renal
[34] = tested on: KM20L2 colon
[35] = tested on: UACC-257 melanoma
[36] = tested on: SR leukemia
[37] = tested on: HCC-2998 colon
[38] = tested on: U251 CNS
[39] = tested on: SNB-75 CNS
[40] = tested on: NCI-H23 lung
[41] = tested on: SK-MEL-28 melanoma
[42] = tested on: LOX IMVI melanoma
[43] = tested on: A549 NSCLC
[44] = tested on: DLD-1 colon
[45] = tested on: SW-620 colon
[46] = tested on: SK-MEL-5 melanoma
[47] = tested on: NCI-H460 lung
[48] = tested on: HCT-15 colon
[49] = tested on: M14 melanoma
[50] = tested on: COLO 205 colon
[51] = tested on: HCT-116 colon
[52] = tested on: HOP-18 NSCLC
[53] = tested on: RPMI-8226 leukemia
[54] = tested on: SK-MEL-2 melanoma
[55] = tested on: DMS 114 small cell lung
[56] = tested on: OVCAR-3 ovarian
[57] = tested on: M19-MEL melanoma
[58] = tested on: EKVX NSCLC
[59] = tested on: NCI-H522 lung

Measured: TGI

FC(F)(F)c1cc(C2SCc3nc4ccccc4n32)cc(C(F)(F)F)c1 (stereo not given)
35.6 µM: [4]
not listed: [36] | [37] | [38] | [39] | [40] | [41] | [42] | [43] | [44] | [45] | [46] | [47] | [48] | [49] | [50] | [51] | [52] | [53] | [54] | [55] | [56] | [57] | [58] | [59]
> 100 µM: all other assays above

O=C(N/N=C/c1cccc(F)c1)c1ccncc1
3.78 µM: [23]
not listed: [10] | [17] | [20] | [21] | [24] | [26] | [27] | [29] | [30] | [31] | [32] | [56] | [57] | [58] | [59]
> 100 µM: all other assays above

CSC(=NCCc1c[nH]c2ccccc12)NC#N
not listed: [2] | [6] | [10] | [14] | [29] | [52] | [54] | [59]
> 100 µM: all other assays above

C/C(=N/NC(=O)C[N+](C)(C)C)C(CN(C)C)C(=O)Nc1ccccc1 (stereo not given)
not listed: [6] | [24] | [29] | [53]
> 100 µM: all other assays above

CC(=O)OCC1OC(N2C(=O)C(=O)c3ccccc32)C(OC(C)=O)C(OC(C)=O)C1OC(C)=O (stereo not given)
not listed: [4] | [5] | [17] | [24] | [51] | [52]
> 100 µM: all other assays above

Cc1cn(C2CC(N(C)C)C(CO)O2)c(=O)[nH]c1=O (stereo not given)
not listed: [7] | [8] | [11] | [12] | [13] | [17] | [22] | [32] | [34] | [35] | [38] | [42] | [43] | [45] | [46] | [47] | [48] | [52] | [56] | [58]
> 100 µM: all other assays above

CC(C)(Oc1ccc(/C=C/C(=O)c2ccc(Cl)cc2)cc1)C(=O)Nc1c(Cl)cccc1Cl
90.2 µM: [19]
30.3 µM: [41]
27.8 µM: [45]
40.9 µM: [40]
26.7 µM: [38]
31 µM: [42]
38 µM: [26]
97.5 µM: [39]
36.7 µM: [49]
28.1 µM: [30]
53.9 µM: [9]
36.9 µM: [7]
29.3 µM: [48]
34.8 µM: [25]
99.6 µM: [35]
33.7 µM: [55]
51.5 µM: [37] | [23]
53 µM: [33]
37 µM: [46]
45.8 µM: [16]
49.6 µM: [22]
40.4 µM: [2]
32.4 µM: [14]
25 µM: [12]
48.9 µM: [10]
76.3 µM: [20]
37.7 µM: [4]
40.2 µM: [50]
28 µM: [11]
46.1 µM: [34]
44.8 µM: [56]
54.2 µM: [27]
98.3 µM: [47]
91.5 µM: [6]
29.2 µM: [44]
45.3 µM: [29]
96.5 µM: [3]
30.5 µM: [32]
18.5 µM: [51]
27.1 µM: [57]
not listed: [5] | [15] | [24] | [28] | [53] | [59]
> 100 µM: all other assays above

c1ccc(N2N=C(c3ccco3)CC2c2ccco2)cc1 (stereo not given)
52.4 µM: [3]
73.4 µM: [5]
not listed: [1] | [6] | [10] | [14] | [29] | [35] | [37] | [44] | [52]
> 100 µM: all other assays above
